Measurements: paper PMC7216583 (Parasites & Vectors, 2020)
Structures can show the parent of a compound that is named as a salt. Where two headings read alike, the source gives them in different places.

Columns and labels:
[1] = system: c-Met; design: method as in library vendor description; conditions: ref library vendor description; cited from earlier work
[2] = system: Toxoplasma gondii RH-2F tachyzoites; assay: microbe, parasite or virus in culture; conditions: 72 h
[3] = in vitro; conditions: human, Host viability (%) mean
[4] = target: influenza viral neuraminidase; design: method as in vendor catalog number S2716; conditions: median; compound library brief description; ref vendor catalog number S2716; read-out: IC50 of median (influenza viral neuraminidase inhibitor); cited from earlier work
[5] = system: SERT; design: method as in vendor brief description; conditions: ref vendor brief description; cited from earlier work
[6] = system: 5-HT3A; design: method as in vendor brief description; conditions: ref vendor brief description; read-out: IC50 5-HT(3A); cited from earlier work
[7] = system: 5-HT(1B); design: method as in vendor brief description; conditions: ref vendor brief description; cited from earlier work
[8] = system: 5-HT1A; design: method as in vendor brief description; conditions: ref vendor brief description; cited from earlier work
[9] = target: 5-HT7 receptor; design: method as in vendor brief description; conditions: ref vendor brief description; cited from earlier work
[10] = system: AXL; design: method as in library vendor description; conditions: ref library vendor description; cited from earlier work
[11] = system: Flt1; design: method as in library vendor description; conditions: ref library vendor description; cited from earlier work
[12] = system: c-Kit; design: method as in library vendor description; conditions: ref library vendor description; cited from earlier work
[13] = system: human foreskin fibroblasts (HFFs); conditions: human, 72 h
[14] = system: Flt4; design: method as in library vendor description; conditions: ref library vendor description; cited from earlier work
[15] = system: Ret; design: method as in library vendor description; conditions: ref library vendor description; cited from earlier work
[16] = target: P-glycoprotein; design: method as in vendor brief description; conditions: ref vendor brief description; cited from earlier work
[17] = system: FKBP12; design: method as in library vendor description; conditions: ref library vendor description; read-out: IC50 mTOR inhibitor of FKBP12; cited from earlier work
[18] = system: CXCR4; design: method as in vendor brief description; conditions: ref vendor brief description; cited from earlier work
[19] = system: CXCL12-mediated chemotaxis; conditions: read-out: IC50 CXCL12-mediated chemotaxis; ref vendor brief description; cited from earlier work
[20] = system: CDK6/cyclin D2; design: method as in library vendor description; conditions: ref library vendor description; cited from earlier work
[21] = system: CDK4/cyclin D1; design: method as in library vendor description; conditions: ref library vendor description; cited from earlier work
[22] = system: CYP17; design: method as in library vendor description; conditions: ref library vendor description; cited from earlier work
[23] = system: HDAC10; design: method as in library vendor description; conditions: ref library vendor description; cited from earlier work
[24] = system: hedgehog; design: method as in library vendor description; conditions: ref library vendor description; cited from earlier work
[25] = system: P-gp; design: method as in library vendor description; conditions: ref library vendor description; cited from earlier work
[26] = system: cytomegalovirus (CMV); design: method as in vendor brief description; conditions: target not stated with the value; ref vendor brief description; cited from earlier work
[27] = system: ET-B; design: method as in vendor brief description; conditions: ref vendor brief description; read-out: IC50 endothelin (ET) B receptor; cited from earlier work
[28] = target: endothelin receptor-A; design: method as in vendor brief description; conditions: ref vendor brief description; cited from earlier work
[29] = target: S. aureus ribosomes; design: method as in vendor catalog number S4056; conditions: similar potencies on both ribosomes; compound library brief description; ref vendor catalog number S4056; read-out: Kd (binds to S. aureus ribosomes); cited from earlier work
[30] = system: PPARδ; design: method as in vendor brief description; conditions: ref vendor brief description; cited from earlier work
[31] = system: ALK; design: method as in library vendor description; conditions: ref library vendor description; cited from earlier work
[32] = system: rabbit cathepsin K; design: method as in library vendor description; conditions: ref library vendor description; cited from earlier work
[33] = system: human cathepsin K; design: method as in library vendor description; conditions: ref library vendor description; cited from earlier work
[34] = target: secretory phospholipase A2 (sPLA); design: method as in library vendor description; conditions: ref library vendor description; cited from earlier work
[35] = system: SGLT2; design: method as in vendor brief description; conditions: ref vendor brief description; cited from earlier work
[36] = system: HDAC; design: method as in library vendor description; conditions: ref library vendor description; cited from earlier work
[37] = system: wild type p110α; design: method as in library vendor description; conditions: ref library vendor description; cited from earlier work
[38] = system: Toxoplasma gondii RH-2F tachyzoites; conditions: preliminary screen, mean
[39] = system: SIRT1; design: method as in library vendor description; conditions: ref library vendor description; cited from earlier work
[40] = system: TNF-α; design: method as in vendor brief description; conditions: ref vendor brief description; cited from earlier work
[41] = system: PDE4; design: method as in vendor brief description; conditions: ref vendor brief description; cited from earlier work
[42] = system: survivin; design: method as in library vendor description; conditions: ref library vendor description; cited from earlier work
[43] = target: Bcl-xL; design: method as in library vendor description; conditions: recombinant; ref library vendor description; cited from earlier work
[44] = target: Bcl-2; design: method as in library vendor description; conditions: ref library vendor description; cited from earlier work
[45] = target: Mcl-1; design: method as in library vendor description; conditions: recombinant; ref library vendor description; cited from earlier work
[46] = system: B-RafV600E; design: method as in library vendor description; conditions: ref library vendor description; cited from earlier work
[47] = system: IGF-1R; design: method as in library vendor description; conditions: ref library vendor description; cited from earlier work
[48] = system: IR; design: method as in library vendor description; conditions: ref library vendor description; cited from earlier work
[49] = read-out: Parasite inhibition (%) mean, preliminary screen, mean
[50] = read-out: Parasite inhibition (%) mean, preliminary screen of compound library, mean

## Cn1cc(-c2ccc3nnc(C(F)(F)c4ccc5ncccc5c4)n3n2)cn1 [JNJ-38877605]
[1]
  IC50: 4 nM
[2]; [49]
  inhibition of growth at 5 µM: 84.3%
[3]
  viability at 72 h: 77.5%

## CCC(CC)[C@H](NC(C)=O)[C@@H]1[C@H](O)[C@@H](C(=O)O)C[C@H]1NC(=N)N [Peramivir Trihydrate]
[2]; [50]
  inhibition of growth at 5 µM: -0.4%
[4]
  IC50: 0.09 nM

## Cc1ccc(Sc2ccccc2N2CCNCC2)c(C)c1 [Vortioxetine (Lu AA21004) hydrobromide]
[5]
  IC50: 1.6 nM
[2]; [50]
  inhibition of growth at 5 µM: 66.8%
[6]
  IC50: 3.7 nM
[7]
  IC50: 33 nM
[8]
  IC50: 15 nM
[9]
  IC50: 19 nM

## COc1cc2nccc(Oc3ccc(NC(=O)C4(C(=O)Nc5ccc(F)cc5)CC4)cc3)c2cc1OC [XL-184 (Cabozantinib)]
[10]
  IC50: […]
[2]; [49]
  inhibition of growth at 5 µM: 82.5%
[11]
  IC50: 12 nM
[12]
  IC50: […]
[13]
  Host viability (%) mean: 50.8%
[14]
  IC50: 6 nM
[15]
  IC50: […]

## COc1cc2c(cc1OC)CN(CCc1ccc(NC(=O)c3cc(OC)c(OC)cc3NC(=O)c3cnc4ccccc4c3)cc1)CC2 [Tariquidar]
[2]; [50]
  inhibition of growth at 5 µM: 0.4%
[16]
  Kd: 5.1 nM

## CO[C@H]1C[C@@H]2CC[C@@H](C)[C@@](O)(O2)C(=O)C(=O)N2CCCC[C@H]2C(=O)O[C@H]([C@@H](C)C[C@@H]2CC[C@@H](OCCO)[C@H](OC)C2)CC(=O)[C@H](C)/C=C(\C)[C@H](O)[C@@H](OC)C(=O)[C@H](C)C[C@H](C)/C=C/C=C/C=C/1C [Everolimus (RAD001)]
[17]
  IC50: 1.6 to 2.4 nM
[2]; [49]
  inhibition of growth at 5 µM: 14.5%

## c1cc(CN2CCCNCCNCCCNCC2)ccc1CN1CCCNCCNCCCNCC1 [Plerixafor (AMD3100)]
[2]; read-out: Parasite inhibition (%) mean
  inhibition of growth at 5 µM: 12.9%
[18]
  IC50: 44 nM
[19]
  IC50: 5.7 nM

## CC(=O)c1c(C)c2cnc(Nc3ccc(N4CCNCC4)cn3)nc2n(C2CCCC2)c1=O [PD 0332991 (Palbociclib) HCl]
[2]; [49]
  inhibition of growth at 5 µM: 0.1%
[20]
  IC50: 16 nM
[21]
  IC50: […]

## C[C@]12CC[C@H](O)CC1=CC[C@@H]1[C@H]2CC[C@]2(C)C(c3cccnc3)=CC[C@@H]12 [Abiraterone (CB-7598)]
[2]; [49]
  inhibition of growth at 5 µM: 11.2%
[22]
  IC50: 2 nM

## Cn1cc(CNCC2CCN(c3ncc(C(=O)NO)cn3)CC2)c2ccccc21 [JNJ-26481585]
[2]; [49]
  inhibition of growth at 5 µM: 79.4%
[23]
  IC50: 0.46 nM
[3]
  viability at 72 h: 70.5%

## CS(=O)(=O)c1ccc(C(=O)Nc2ccc(Cl)c(-c3ccccn3)c2)c(Cl)c1 [Vismodegib (GDC-0449)]
[2]; [49]
  inhibition of growth at 5 µM: 25.5%
[24]
  IC50: 3 nM
[25]
  IC50: […]

## Nc1ccn(C[C@@H](CO)OCP(=O)(O)O)c(=O)n1 [Cidofovir (Vistide)]
[2]; [50]
  inhibition of growth at 5 µM: 0.8%
[26]
  IC50: 940 nM

## CCCNS(=O)(=O)Nc1ncnc(OCCOc2ncc(Br)cn2)c1-c1ccc(Br)cc1 [Macitentan]
[27]
  IC50: 391 nM
[2]; [50]
  inhibition of growth at 5 µM: 12.3%
[28]
  IC50: 0.5 nM

## C=C[C@]1(C)C[C@@H](OC(=O)CS[C@@H]2C[C@H]3CC[C@@H](C2)N3C)[C@]2(C)[C@H](C)CC[C@]3(CCC(=O)[C@H]32)[C@@H](C)[C@@H]1O [Retapamulin]
[29]
  Kd: 3 nM

## O=C(NCCS(=O)(=O)c1ccc(C(F)(F)F)cn1)c1ccc(Cl)cc1 [GSK3787]
[2]; [50]
  inhibition of growth at 5 µM: 9%
[30]
  pIC50 PPARδ: GSK3787 is as a potent and selective antagonist of PPARδ with pIC50 of 6.6.

## COc1cc(N2CCC(N3CCN(C)CC3)CC2)ccc1Nc1ncc(Cl)c(Nc2ccccc2S(=O)(=O)C(C)C)n1 [TAE684 (NVP-TAE684)]
[2]; [49]
  inhibition of growth at 5 µM: 6.8%
[31]
  IC50: […]

## CC(C)(F)C[C@H](N[C@@H](c1ccc(-c2ccc(S(C)(=O)=O)cc2)cc1)C(F)(F)F)C(=O)NC1(C#N)CC1 [Odanacatib (MK 0822)]
[32]
  IC50: 1 nM
[2]; [49]
  inhibition of growth at 5 µM: -9.7%
[33]
  IC50: 0.2 nM

## CCc1c(C(=O)C(N)=O)c2c(OCC(=O)O)cccc2n1Cc1ccccc1 [Varespladib (LY315920)]
[2]; [49]
  inhibition of growth at 5 µM: 36.6%
[34]
  IC50: 7 nM

## OC[C@H]1O[C@@H](c2ccc(Cl)c(Cc3ccc(O[C@H]4CCOC4)cc3)c2)[C@H](O)[C@@H](O)[C@@H]1O [Empagliflozin (BI10773)]
[2]; [50]
  inhibition of growth at 5 µM: 3.8%
[35]
  IC50: 3.1 nM

## O=C(/C=C/c1ccc(CN(CCO)CCc2c[nH]c3ccccc23)cc1)NO [LAQ824 (NVP-LAQ824, Dacinostat)]
[36]
  IC50: 32 nM
[2]; [49]
  inhibition of growth at 5 µM: 60.4%

## XL147
[37]
  IC50: 40 nM
[38]
  Parasite inhibition (%) mean: 44.4%

## Cl.O=C(Nc1ccccc1-c1cn2c(CN3CCNCC3)csc2n1)c1cnc2ccccc2n1 [SRT1720]
[2]; [49]
  inhibition of growth at 5 µM: 18.3%
[39]
  EC1.5 SIRT1 activation: SRT1720 is a selective SIRT1 activator with EC1.5 of 0.16 μM.

## CCOc1cc([C@@H](CS(C)(=O)=O)N2C(=O)c3cccc(NC(C)=O)c3C2=O)ccc1OC [Apremilast (CC-10004)]
[2]; [50]
  inhibition of growth at 5 µM: -1.4%
[40]
  IC50: 77 nM
[41]
  IC50: 74 nM

## COCCn1c2c([n+](Cc3cnccn3)c1C)C(=O)c1ccccc1C2=O [YM155]
[42]
  IC50: 0.54 nM
[2]; [49]
  inhibition of growth at 5 µM: 15.4%

## CC(C)c1ccccc1Cc1cc(C(=O)Nc2ccc(S(=O)(=O)c3ccccc3C(C)(C)C)cc2)c(O)c(O)c1O [TW-37]
[43]
  Ki: 1110 nM
[44]
  Ki: 290 nM
[2]; [49]
  inhibition of growth at 5 µM: 58.9%
[45]
  Ki: 260 nM

## OCCn1cc(-c2ccc3c(c2)CC/C3=N\O)c(-c2ccncc2)n1 [GDC-0879]
[2]; [49]
  inhibition of growth at 5 µM: 7.9%
[46]
  IC50: 0.13 nM

## CCc1cc(Nc2nccc(-c3c(-c4ccc(OC)c(C(=O)Nc5c(F)cccc5F)c4)nc4ccccn34)n2)c(OC)cc1N1CCC(N2CCN(S(C)(=O)=O)CC2)CC1 [GSK1904529A]
[2]; [49]
  inhibition of growth at 5 µM: 70.6%
[47]
  IC50: 27 nM
[48]
  IC50: 25 nM
[3]
  viability at 72 h: 76.8%
